Results as given in EP0777471B1, “INHIBITION OF LEUKOTRIENE BIOSYNTHESIS WITH UREA DERIVATIVES” (MINNESOTA MINING AND MANUFACTURING COMPANY, priority 1994, dated 1996).
pIC50: −log10 of the molar value. Like-named read-outs stand apart in the source and are kept apart here.

Columns and labels:
5-lipoxygenase = target: T1, 5-lipoxygenase (Homo sapiens, UniProt P09917); assay: 5-Lipoxygenase inhibition in human leukocytes (A23187-stimulated, LTC4 radioimmunoassay); assay type: cell-based
T1 construct: Whole human blood is collected by venipuncture into EDTA; endogenous in cells; host or cells: leukocytes isolated from whole human blood (dextran sedimentation, hypotonic lysis)
T1 sequence (P09917 1-674): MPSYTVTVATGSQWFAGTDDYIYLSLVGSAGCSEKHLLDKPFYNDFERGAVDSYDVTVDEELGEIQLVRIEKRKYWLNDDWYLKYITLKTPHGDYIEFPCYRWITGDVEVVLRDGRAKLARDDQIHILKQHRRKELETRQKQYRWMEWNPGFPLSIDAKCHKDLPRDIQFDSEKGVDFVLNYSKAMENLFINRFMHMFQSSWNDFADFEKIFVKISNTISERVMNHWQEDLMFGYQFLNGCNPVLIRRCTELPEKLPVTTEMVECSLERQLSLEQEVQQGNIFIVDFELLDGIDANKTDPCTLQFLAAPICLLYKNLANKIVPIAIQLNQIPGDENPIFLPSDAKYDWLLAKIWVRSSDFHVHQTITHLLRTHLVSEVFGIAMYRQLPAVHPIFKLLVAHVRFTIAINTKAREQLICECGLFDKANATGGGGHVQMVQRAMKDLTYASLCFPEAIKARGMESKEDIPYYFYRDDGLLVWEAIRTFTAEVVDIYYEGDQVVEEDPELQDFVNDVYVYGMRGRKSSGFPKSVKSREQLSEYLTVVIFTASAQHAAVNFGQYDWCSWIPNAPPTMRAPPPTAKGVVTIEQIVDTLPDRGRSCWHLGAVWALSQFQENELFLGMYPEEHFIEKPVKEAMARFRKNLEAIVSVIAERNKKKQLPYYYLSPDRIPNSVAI
Method: The test method described below measures the ability of compounds to inhibit 5-lipoxygenase activity in human leukocytes.
Whole human blood is collected by venipuncture into EDTA (1.4 mL of 0.25M per 60 mL of whole blood). The red blood cells are sedimented with a 6% dextran/0.9% sodium chloride solution at a ratio of 25 mL whole blood to 15 mL dextran solution. The blood/dextran combination is mixed by inversion and the red blood cells are allowed to settle out for 45 minutes at ambient temperature. The plasma/dextran supernatant is removed then centrifuged at ambient temperature at 3000 rpm for 10 minutes. The plasma/dextran supernatant is removed and the cells are resuspended in 10 mL of the plasma/dextran solution. […] The pellet is then resuspended into Tris buffer containing 1 mM calcium chloride to provide approximately 1.0 X 10^7 cells/mL.
Compounds are dissolved in dimethyl sulfoxide. […] Each concentration is tested in duplicate.
A 15 µL portion of Tris buffer containing 1 mM calcium chloride is added to each well of a 96 well microtiter plate. A 1 µL portion of drug solution or vehicle (dimethyl sulfoxide) is added to each well followed by the addition of an 75 µL portion of the cell suspension. The plates are gently mixed then allowed to stand at ambient temperature for 10 minutes. A 10 µL portion of 30 µM A23187 Calcium Ionophore (prepared by dissolving the ionophore in DMSO and then diluting 1:80 into the Tris buffer) is added to each well except the wells that contain the blanks (The blank wells measure the level of LTC4 production in the absence of A23187.). The plates are gently mixed then incubated at 37°C for 10 minutes.
Following incubation the plates are centrifuged at 2000 rpm for 1.5 minutes and the supernatant is removed as quickly as possible to stop the reaction. The supernatants are frozen at -20°C until they are assayed.
The supernatants are assayed for the presence of Leukotriene C4 by radioimmunoassay which is performed according to the manufacturer's (Advanced Magnetics; Cambridge, MA) instructions.

[1] = tested on: production of Leukotriene C4 in mouse peritoneal macrophages; assay: In vitro mouse peritoneal macrophage Leukotriene C4 inhibition (zymosan-stimulated, LTC4 radioimmunoassay); assay type: cell-based; details: Zymosan 50 µg/mL
In short: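 Adherent peritoneal macrophages from female CD-1 mice were preincubated 15 minutes at 37°C with compound (10, 1 and 0.1 µM, duplicate; DMSO). They were then stimulated with 50 µg/mL zymosan for 1 to 2 hours. Leukotriene C4 released into the medium was measured by radioimmunoassay.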

[2] = human leukocytes, A23187 Calcium Ionophore, LTC4 formed, read-out: IC50

pIC50 (5-lipoxygenase; [2]) | pIC50 [1] | Compound | pIC50 (5-lipoxygenase)
7.03 | 5.89 | CC(C)CN(O)C(=O)Nc1ccccc1 [Compound 54, 1-Hydroxy-1-(2-methylpropyl)-3-phenylurea] | 
6.82 | 6.70 | COc1ccc(NC(=O)N(O)C(C)C)cc1 [Compound 23, 1-hydroxy-3-(4-methoxyphenyl)-1-(1-methylethyl)urea] | 
6.38 | 6.70 | COc1cccc(NC(=O)N(C)O)c1 [Compound 5, 1-hydroxy-3-(3-methoxyphenyl)-1-methylurea] | 
7.70 | > 6.00 | CN(O)C(=O)Nc1ccccc1 [Compound 10, 1-hydroxy-1-methyl-3-phenylurea] | 
6.17 | 6.40 | CN(O)C(=O)Nc1cccc(F)c1 [Compound 8, 3-(3-fluorophenyl)-1-hydroxy-1-methylurea] | 
6.89 | 6.22 | Cc1ccccc1NC(=O)N(O)C(C)C [Compound 25, 1-hydroxy-1-(1-methylethyl)-3-(2-methylphenyl)urea] | 
5.96 | 6.52 | CN(O)C(=O)Nc1cccc(S(C)(=O)=O)c1 [Compound 59, 1-Hydroxy-1-methyl-3-[3-(methylsulfonyl)phenyl]urea] | 
7.00 | > 6.00 | CC(C)N(O)C(=O)Nc1ccc(Br)cc1 [Compound 19, 3-(4-bromophenyl)-1-hydroxy-1-(1-methylethyl)urea] | 
7.15 | > 7.00 | CN(O)C(=O)Nc1cccc(Br)c1 [Compound 6, 3-(3-bromophenyl)-1-hydroxy-1-methylurea] | 
6.55 | > 6.00 | Cc1cccc(NC(=O)N(C)O)c1 [Compound 7, 1-hydroxy-1-methyl-3-(3-methylphenyl)urea] | 
7.10 | 6.15 | CN(O)C(=O)Nc1cccc([N+](=O)[O-])c1 [Compound 9, 1-hydroxy-1-methyl-3-(3-nitrophenyl)urea] | 
8.00 | > 6.00 | CC(C)CCN(O)C(=O)Nc1ccccc1 [Compound 44, 1-hydroxy-1-(3-methylbutyl)-3-phenylurea] | 
6.15 | 6.70 | CC(C)N(O)C(=O)Nc1ccccc1F [Compound 20, 3-(2-fluorophenyl)-1-hydroxy-1-(1-methylethyl)urea] | 
7.37 | 6.22 | CC(C)N(O)C(=O)Nc1ccccc1 [Compound 17, 1-hydroxy-1-(1-methylethyl)-3-phenylurea] | 
6.68 | 6.10 | CC(C)N(O)C(=O)Nc1ccc(F)cc1 [Compound 18, 3-(4-fluorophenyl)-1-hydroxy-1-(1-methylethyl)urea] | 
6.64 | 7.00 | Cc1cccc(NC(=O)N(O)C(C)C)c1 [Compound 21, 1-hydroxy-1-(1-methylethyl)-3-(3-methylphenyl)urea] | 
7.08 | > 6.00 | CSc1ccc(NC(=O)N(C)O)cc1 [Compound 1, 1-Hydroxy-1-methyl-3-[4-(methylthio)phenyl]urea] | 
8.10 | > 6.00 | CSc1cccc(NC(=O)N(O)C(C)C)c1 [Compound 16, 1-hydroxy-1-(1-methylethyl)-3-[3-(methylthio)phenyl]urea] | 

Compound | pIC50 (5-lipoxygenase; [2]) | pIC50 [1] | pIC50 (5-lipoxygenase)
CC(C)N(O)C(=O)Nc1ccccc1Cl [Compound 24, 3-(2-chlorophenyl)-1-hydroxy-1-(1-methylethyl)urea] |  | 6.70 | 6.70
